One data set concerns the target T1, COX-I (Homo sapiens, UniProt P23219).
T1 construct: Fresh blood was collected by syringe without anticoagulants from volunteers with consent; from tissue; host or cells: fresh human whole blood from volunteers, no anticoagulant, left to clot
The experiment in a line: Whole blood assay for COX-I (TXB2 production). The data set is classed as cell-based. The note with it: 1 hr at 37° C. As to the method:
[B] Inhibiting Activity Against COX-I and COX-II (Whole Blood Assay): (i) Test Method: Whole Blood Assay for COX-I
Fresh blood was collected by syringe without anticoagulants from volunteers with consent. The subjects had no apparent inflammatory conditions and had not taken any medication for at least 7 days prior to blood collection.
500 μl aliquots of human whole blood were immediately incubated with 2 μl of either dimethyl sulfoxide vehicle or a test compound at final concentrations for 1 hr at 37° C. to allow the blood to clot. Appropriate treatments (no incubation) were used as blanks. At the end of the incubation, 5 μl of 250 mM Indomethacin was added to stop the reaction. The blood was centrifuged at 6000×g for 5 min at 4° C. to obtain serum. A 100 μl aliquot of serum was mixed with 400 μl methanol for protein precipitation. The supernatant was obtained by centrifuging at 6000×g for 5 min at 4° C. and was assayed for TXB2 using an enzyme immunoassay kit according to the manufacturer's procedure. For a test compound, the results were expressed as percent inhibition of thromboxane B2(TXB2) production relative to control incubations containing dimethyl sulfoxide vehicle.
The data were analyzed by that a test compound at the indicated concentrations was changed log value and was applied simple linear regression. IC50 value was calculated by least squares method.

The target of the next data set is T2, COX-II (Homo sapiens, UniProt P35354).
T2 construct: lipopolysaccharide for 24 hrs at 37° C. for induction of COX-II; from tissue; host or cells: fresh heparinized human whole blood from volunteers, stimulated with LPS for 24 hrs
T2 sequence (P35354 18-604): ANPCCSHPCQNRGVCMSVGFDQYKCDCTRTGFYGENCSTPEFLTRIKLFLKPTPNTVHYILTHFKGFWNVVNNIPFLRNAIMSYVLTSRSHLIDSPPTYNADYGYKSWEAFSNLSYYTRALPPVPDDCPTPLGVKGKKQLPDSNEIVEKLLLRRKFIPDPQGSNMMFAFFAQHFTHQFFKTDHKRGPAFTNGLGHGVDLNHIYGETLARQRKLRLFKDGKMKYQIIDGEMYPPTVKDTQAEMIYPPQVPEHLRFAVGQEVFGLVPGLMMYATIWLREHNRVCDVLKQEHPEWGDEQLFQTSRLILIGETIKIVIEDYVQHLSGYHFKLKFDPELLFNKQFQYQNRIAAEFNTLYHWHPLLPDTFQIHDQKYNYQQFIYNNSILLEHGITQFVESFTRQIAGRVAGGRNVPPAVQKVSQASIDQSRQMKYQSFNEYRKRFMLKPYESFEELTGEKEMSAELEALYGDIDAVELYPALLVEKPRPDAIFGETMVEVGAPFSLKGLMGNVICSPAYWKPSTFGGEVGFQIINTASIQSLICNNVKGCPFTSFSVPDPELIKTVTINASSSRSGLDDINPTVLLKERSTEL
In words: Whole blood assay for COX-II (LPS-induced PGE2 production). The format is cell-based. To be noted: lipopolysaccharide 24 hrs at 37° C. Here is the method: Whole Blood Assay for COX-II
Fresh blood was collected in heparinized tubes by syringe from volunteers with consent. The subjects had no apparent inflammatory conditions and had not taken any medication for at least 7 days prior to blood collection.
500 μl aliquots of human whole blood were incubated with either 2 μl dimethyl sulfoxide vehicle or 2 μl of a test compound at final concentrations for 15 min at 37° C. This was followed by incubation of the blood with […] of 5 mg/ml lipopolysaccharide for 24 hrs at 37° C. for induction of COX-II. Appropriate PBS treatments (no LPS) were used as blanks. At the end of the incubation, the blood was centrifuged at 6000×g for 5 min at 4° C. to obtain plasma. A 100 μl aliquot of plasma was mixed with 400 μl methanol for protein precipitation. The supernatant was obtained by centrifuging at 6000×g for 5 min at 4° C. and was assayed for prostaglandin E2 (PGE2) using a radioimmunoassay kit after conversion of PGE2 to its methyl oximate derivative according to the manufacturer's procedure.
For a test compound, the results were expressed as percent inhibition of […] production relative to control incubations containing dimethyl sulfoxide vehicle. The data were analyzed by that a test compound at the indicated concentrations was changed log value and was applied simple linear regression. IC50 value was calculated by least squares method.

Data set [1] relates to adjuvant arthritis in rats. In words: Analgesic activity: effect on adjuvant arthritis in rats (Randall-Selitto pain threshold). The format is in vivo, Lewis rats. The note with it: dose 3.2 mg/kg; ratio of threshold pressure of treated vs non-treated arthritic rats, 2 hrs after administration; ratio of 1.5 = effective dose.

Experimental findings from US20070043084A1, “1,2-Diarylimidazoles useful as inhibitors of cox” (Astellas Pharma Inc., priority 2003, published 2007) are described below.

T1 sequence (P23219 24-599): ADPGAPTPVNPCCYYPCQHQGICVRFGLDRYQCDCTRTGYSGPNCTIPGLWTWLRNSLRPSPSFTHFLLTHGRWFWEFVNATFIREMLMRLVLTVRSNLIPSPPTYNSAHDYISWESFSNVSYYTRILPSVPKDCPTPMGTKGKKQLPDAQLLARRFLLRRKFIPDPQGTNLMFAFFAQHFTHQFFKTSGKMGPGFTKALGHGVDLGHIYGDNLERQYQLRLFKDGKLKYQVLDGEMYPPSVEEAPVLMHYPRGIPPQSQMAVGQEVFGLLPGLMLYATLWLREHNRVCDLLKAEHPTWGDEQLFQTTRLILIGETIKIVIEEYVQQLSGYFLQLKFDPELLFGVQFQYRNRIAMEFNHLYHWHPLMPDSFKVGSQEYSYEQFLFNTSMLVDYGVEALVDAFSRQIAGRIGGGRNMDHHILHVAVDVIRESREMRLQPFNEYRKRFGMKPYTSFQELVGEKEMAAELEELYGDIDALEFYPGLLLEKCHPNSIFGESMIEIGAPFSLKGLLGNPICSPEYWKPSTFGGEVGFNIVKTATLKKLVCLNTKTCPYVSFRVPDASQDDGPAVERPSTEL

The melting point is the temperature, or range, at which the solid turns liquid. As usually defined, the IC50 is the concentration that inhibits the measured activity by half. Low readings indicate greater potency in that assay, high ones weaker potency in that assay. `COc1ccc(-c2nc(C(F)F)cn2-c2ccc(C#N)cc2)cn1` [Example 40, 1-(4-Cyanophenyl)-4-difluoromethyl-2-(2-methoxy-5-pyridinyl)-1H-imidazole] gave a melting point of 160 to 161 °C. The compound also showed a half-maximal inhibitory concentration (IC50) on COX-I of less than 10 nM. The compound also came in with an IC50 at COX-II of no less than 100 nM. The “The coefficient of analgesic” value in data set [1] is given as greater than 1.5.
As for `COc1ccc(-c2nc(C(F)(F)F)cn2-c2ccc(C#N)cc2)cc1` [Example 24, 1-(4-Cyanophenyl)-2-(4-methoxyphenyl)-4-trifluoromethyl-1H-imidazole], the melting point lay in the range of 146 to 148 °C. The same compound showed an IC50 at COX-I of less than 10 nM. Further, at COX-II, the IC50 was no less than 100 nM. In addition, the “The coefficient of analgesic” value in data set [1] is listed as greater than 1.5.
Turning to `COc1ccc(-n2cc(C(F)(F)F)nc2-c2ccc(OC)nc2)cc1` [Example 3-2, 1-(4-Methoxyphenyl)-2-(2-methoxy-5-pyridinyl)-4-trifluoromethyl-1H-imidazole], the melting point is 90 to 92 °C. For the same compound, on COX-I, the half-inhibitory concentration (IC50) is less than 10 nM. Besides, on COX-II, the half-maximal inhibitory concentration (IC50) was no less than 100 nM. Besides, in data set [1], the “The coefficient of analgesic” value is reported as greater than 1.5.
On the same counts, the results for `COc1ccc(-n2cc(C(F)F)nc2-c2ccc(OC)nc2)cc1` [Example 43, 4-Difluoromethyl-1-(4-methoxyphenyl)-2-(2-methoxy-5-pyridinyl)-1H-imidazole] are 106 to 107 °C, less than 10 nM, no less than 100 nM and greater than 1.5.
For `COc1ccc(-c2nc(C#N)cn2-c2ccc(OC)cc2)cc1.Cl` [Example 11, 4-Cyano-1-(4-methoxyphenyl)-2-(4-methoxyphenyl)-1H-imidazole hydrochloride], the melting point was 142 to 143 °C. Also, the 50% inhibitory concentration (IC50) on COX-I was less than 10 nM. The same compound yielded a half-inhibitory concentration (IC50) at COX-II of no less than 100 nM. Further, the “The coefficient of analgesic” value in data set [1] is greater than 1.5.
